Reference: US10106565B2 (priority 2008, dated 2018)

What was measured:
[1] = system: CD4+ T cells; assay: Intracellular detection of IL10 in CD4+ T cells after MLR; assay type: cell-based, human; conditions: PBL:monocytes 4:1, 5 hours re-stimulation; compared to MLR with class-monocytes
Protocol: Six days following the primary stimulation with one of the differently activated monocytes at a ratio of PBL:monocytes of 4:1, cells were restimulated with 10000 anti-CD 3/anti-CD28 beads for 5 hours (according to the technical description by J. P. Edwards et al., (2006) J Leukoc Biol 80, 1298-1307) and with 10 μg/mL Brefeldin A (Sigma-Aldrich) to inhibit cytokine secretion. Cells are then harvested, washed with PBS and incubated 15 minutes at 4° C. with mouse mAb anti-human CD4-PE (clone 13B8.2, Beckman-Coulter) in PBS with 5% FCS. Cells washed twice, are then fixed by 2% paraformaldehyde in PBS and permeabilized with 1% saponin in PBS. Intracellular staining is performed with AlloPhycoCyanin-conjugated rat anti-human IL10 (clone JES3-19F1, BD Bioscience) for 30 minutes at 4° C. in PBS with 1% saponin and analyzed by flow cytometry. Each condition is done in triplicate and results are expressed as the mean±SD. Intracellular IL10 mean fluorescence intensity (mfi) means across the differently activated monocytes are compared by one-way analysis of variance, the comparisons between CD4^+/CFSE^− and CD4^+/CFSE^+ cells are done with Student's t-test using Sigma Stat software (Systat Software).

[2] = system: human monocytes; assay: Flow cytometry phenotype of dendrimer-activated monocytes (surface markers); assay type: cell-based; conditions: 20 μM, compared with alt- and class-monocytes
Protocol: For the functional experiments, freshly purified monocytes are cultured in 6-well plates. The cells are stimulated for 24 hours (immunophenotyping by flow cytometry analyses, MLR) or 96 hours (CD206 detection) with different stimuli or remain untreated (control). Dendrimer-activated monocytes (da-monocytes) are obtained with 20 μM of the dendrimer Gc1, alternatively-activated monocytes (alt-monocytes) with 10 U/mL recombinant human IL4 (Peprotech). The classical activation of monocytes is obtained by priming the cells over night (18 hours) with 100 U/mL of human recombinant IFN-γ (R&D Systems) and, after a washing step in PBS, by stimulation with 10 ng/mL LPS from E. coli 011/B4 strain (InvivoGen) for the remaining 6 hours or […].
Flow cytometry is performed on a LSR-II cytometer (BD Biosciences). The data are analyzed with FACSDiva (BD Biosciences) or WinMDI softwares. The expression of surface markers is performed using mouse anti-human fluorochrome-conjugated mAbs specific for MHC class II-FITC (clone Tü36), CD86-PE (clone 2331), MHC class I-PE-Cy5 (clone G46-2.6) and CD13-PE (clone WM15) from BD Biosciences and specific for CD64-FITC (clone 22) and CD206-PE (clone 3.29B1.10) from Beckman-Coulter. Appropriate isotype-matched antibodies are used as negative control.

[3] = system: human monocytes; assay: Affymetrix genechip transcriptional profile of monocytes activated by dendrimer; assay type: cell-based; conditions: 20 μM, 6 hours, vs untreated monocytes
Protocol: Peripheral Blood Mononuclear Cells (PBMC) from adult healthy volunteers are prepared as described in example 1.
Monocytes are then purified by positive selection using microbeads conjugated with anti-CD14 mAb, according to the manufacturer's instructions (Miltenyi Biotec). The cells obtained after the purification are >95% pure. The CD14 negative fraction is collected as Peripheral Blood Lymphocytes (PBL).
Monocytes are cultured at a final concentration of 1×10^6 cells/mL in complete RPMI 1640 medium (as described in example 1.1).
For genechip analysis, 10×10^6 monocytes from 3 donors (and from 3 more donors for quantitative PCR) are cultured in 25 cm^2 dishes. They are stimulated with 20 μM of dendrimer for 6 hours or remain untreated (control cells).
Total RNA are extracted from 10×10^6 monocytes using TRIzol™ Reagent (Invitrogen), according to the manufacturer's instructions. The quality and integrity of the RNA obtained are assessed by using an Agilent 2100 Bioanalyser (Agilent Technologies) after a denaturating step at 70° C. for 2 minutes. cRNA are prepared according to one-Cycle Target Labelling protocol (Affymetrix) starting from 1 μg of total RNA.
cRNA are fragmented and hybridized to Affymetrix HG-U133 plus 2.0 arrays. […] Monocytes from 3 donors are analyzed after 6 hour incubation in the presence or absence of the dendrimer Gc1. […]

[4] = system: purified CD4 T lymphocytes; assay type: cell-based, human; conditions: 20 μM dendrimer; anti-CD3/anti-CD28 microbeads and IL2; without dendrimer 88%
Protocol: PBMC from adult healthy volunteers are prepared as described in example 5.1.
CD4 T lymphocytes are then purified from PBMC by positive selection using microbeads conjugated with anti-CD4 mAb, according to the manufacturer's instructions (Miltenyi Biotec). The cells obtained after the purification are >98% pure (as verified by flow cytometry).
Purified CD4 T lymphocytes are cultured at a final concentration of 1.5×10^6 cells/mL in complete RPMI 1640 medium (as described in example 5.1). Then, their proliferation is triggered by microbeads coated with anti-CD3 and anti-CD28 mAbs (Dynabeads®, Dynal Biotech ASA). Dendrimer Gc1 and its analogs are made soluble in sterile water at 2 mM and filtered through a 0.2 μm membrane before use at 20 μM in culture.
Proliferation of purified CD4 T lymphocytes is evaluated by flow cytometry by analyzing the intracellular dilution of a fluorescent probe: the CFSE.

CN(/N=C/c1ccc(OP2(Oc3ccc(/C=N/N(C)P(=S)(Oc4ccc(CCN(CP(=O)(O)O)CP(=O)(O)O)cc4)Oc4ccc(CCN(CP(=O)(O)O)CP(=O)(O)O)cc4)cc3)=NP(Oc3ccc(/C=N/N(C)P(=S)(Oc4ccc(CCN(CP(=O)(O)O)CP(=O)(O)O)cc4)Oc4ccc(CCN(CP(=O)(O)O)CP(=O)(O)O)cc4)cc3)(Oc3ccc(/C=N/N(C)P(=S)(Oc4ccc(CCN(CP(=O)(O)O)CP(=O)(O)O)cc4)Oc4ccc(CCN(CP(=O)(O)O)CP(=O)(O)O)cc4)cc3)=NP(Oc3ccc(/C=N/N(C)P(=S)(Oc4ccc(CCN(CP(=O)(O)O)CP(=O)(O)O)cc4)Oc4ccc(CCN(CP(=O)(O)O)CP(=O)(O)O)cc4)cc3)(c3ccc(/C=N/N(C)P(=S)(Oc4ccc(CCN(CP(=O)(O)O)CP(=O)(O)O)cc4)Oc4ccc(CCN(CP(=O)(O)O)CP(=O)(O)O)cc4)cc3)=N2)cc1)P(=S)(Oc1ccc(CCN(CP(=O)(O)O)CP(=O)(O)O)cc1)Oc1ccc(CCN(CP(=O)(O)O)CP(=O)(O)O)cc1 (centres unmarked) [Gc1]
production of IL10 by divided CD4+ T cells in MLR with da-monocytes [1]: significantly enhanced
cell surface expression of CD13 (aminopeptidase N) ([2]; 24 hours): Class-monocytes express a higher level of CD13 than alt- and da-monocytes
cell surface expression of CD64 (FcγRI) ([2]; 24 hours): overexpressed in class-monocytes, but not in alt- or da-monocytes
expression of HLA-DR, HLA-A,B,C and CD86 (antigen-presenting capacity) ([2]; 24 hours): poor APC
cell surface expression of mannose receptor MRC1 (CD206) ([2]; 96 hours): strongly enhanced
number of genes under-expressed by da-monocytes ([3]; fold change ≤−2.0 in at least two of three donors): 62
number of genes over-expressed by da-monocytes ([3]; fold change ≥2.0 in at least two of three donors): 78
purified CD4 T lymphocytes that have divided [4]: 10.2%
